Measurements as given in patent US20060101536A1, “Eucalyptus urophylla transformation and regeneration” (ArborGen, LLC, priority 2004, published 2006).

Key:
[1] = system: Elite Eucalyptus urophylla clone; assay: Auxin pre-treatment, Agrobacterium infection rate by GUS staining; assay type: cell-based
Protocol: GUS staining was performed to monitor the frequency of Agrobacterium infection and to ensure that the selected shoots are not escapes or chimeras. […] To determine GUS activity, the explants were incubated in a substrate comprising 100 mM phosphate buffer (pH 7.0), 0.05% dimethyl suphoxide, 0.05% Triton X-100, 10 mM EDTA, 0.5 mM potassium ferrocyanide, and 1.5 mg/ml 5-bromo-4-chloro-3-indolyl-β-D-glucuronide (X-gluc). The explants were subjected to 10 minutes of vacuum before an overnight incubation at 37° C. Following overnight incubation, GUS foci were counted.
Explants from E. urophylla and E. saligna were prepared as described in Example 1 and Agrobacterium strain GV2260 containing pWVR133 was prepared as described in Example 3. Harvested explants were incubated in the dark for 4 days either on Eucalyptus regeneration medium or a medium with various auxin-rich growth regulators. Agrobacterium culture was dripped on explants and co-cultured with the explants on the same medium for 3 days in dark. Then, explants were removed from the Agrobacterium puddle and transferred to Euc Regeneration medium supplemented with 400 mg/l timentin for 4 days. Following transfer to regeneration medium, the explants were stained for GUS expression.

[2] = system: Elite Eucalyptus urophylla clone; assay: Shoot regeneration after pre-culture in control experiments; assay type: cell-based; conditions: medium with 1.0 mg/l 2,4-D (0.5 mg/l zeatin)
From the text: In addition, the regeneration is not affected by the pre-culture in control experiments.

E. urophylla = assay: Combining auxin with Agrobacterium inducer in pre-culture, infection by GUS staining; assay type: cell-based, Eucalyptus urophylla; conditions: Table 8
Protocol: Induced Agrobacterium culture was prepared as described in Example 3 and the culture was dripped onto each explant by pipette. Sufficient Agrobacterium culture was dripped to ensure that all the cut edges were covered with bacterial solution. Alternatively, the explants may be transformed by vacuum infiltration, floral dip, and other methods of Agrobacterium-mediated transformation. Following transformation, explants covered with Agrobacterium culture were placed in the dark for four days of co-cultivation. Alternatively, the explants may be co-cultivated with Agrobacterium under light conditions. Additionally, the explants may be co-cultivated with Agrobacterium under light or dark conditions for 2-10 days, preferably 4 days. Following co-cultivation, the explants were transferred to Euc Regeneration medium (Table 3) with 400 mg/l timentin. There is no need to wash explants. Explants were cultured on this medium for four days before transfer to a selection medium. In the present example, the selection medium is the Euc Regeneration medium supplemented with both timentin and an herbicide selection agent.
(§1) GUS staining was performed to monitor the frequency of Agrobacterium infection and to ensure that the selected shoots are not escapes or chimeras. For transformation experiments with pWVR133, the leaf and stem tissues from the regenerated shoots were stained for GUS expression immediately upon shoot development. For transformation experiments with pWVZ20, leaf and stem tissues from the regenerated shoots were stained for GUS expression when shoots are further developed and free from residual Agrobacterium. To determine GUS activity, the explants were incubated in a substrate comprising 100 mM phosphate buffer (pH 7.0), 0.05% dimethyl suphoxide, 0.05% Triton X-100, 10 mM EDTA, 0.5 mM potassium ferrocyanide, and 1.5 mg/ml 5-bromo-4-chloro-3-indolyl-β-D-glucuronide (X-gluc). The explants were subjected to 10 minutes of vacuum before an overnight incubation at 37° C. Following overnight incubation, GUS foci were counted.
In the following examples, explants from E. urophylla clones were cultured on auxin-rich pre-culture medium with or without 250 μM AS before infection. Explants were pre-cultured with Euc Regeneration medium as the control. Following pre-culture, the explants were inoculated with Agrobacterium as described in Example 5.

[3] = system: wounded cells along the cut edges; assay: Agrobacterium inducer alone in pre-culture medium, infection by GUS staining; assay type: cell-based
[4] = system: E. urophylla leaf explants; assay: Geneticin selection of NPTII transformants, GUS staining of resistant calli; assay type: cell-based, Eucalyptus urophylla; conditions: about 10 weeks selection
Protocol: as §1
E. urophylla leaf explants were infected with Agrobacterium strain GV2260 harboring pWVC33, which contains GUS gene (driven by an constitutive promoter) and NPTII gene (driven by a different constitutive promoter). Before transforming, the explants were pre-cultured for 4 days on a medium having auxin enrichment (IAA at 2 mg/l instead of 0.1 mg/l NAA in standard regeneration medium) and acetosyringone (250 μM). As described in Example 6, the explants were infected with Agrobacterium, co-cultivated on the same medium for 3 days, and then transferred to a regeneration medium supplemented with 400 mg/l timentin for 4 days. Then, the explants were transferred to a selection medium containing geneticin instead of an herbicide selection agent.
The transformants were placed on geneticin selection medium containing geneticin (either 20 or 30 mg/l). Instead of the 3- or 4-week transfer cycles used with an herbicide selection medium, the explants were transferred bi-weekly to fresh geneticin medium. […]

[5] = Table 6, 0.25 mg/l 2,4-D + 0.5 mg/l zeatin
[6] = Table 6, 1.0 mg/l 2,4-D + 0.5 mg/l zeatin
[7] = Table 7, 0.5 mg/l in EucReg Medium + 5 mg/l zeatin
[8] = Table 7, 0.5 mg/l in EucReg Medium + 5 mg/l zeatin, 25 explants
[9] = Table 7, 1.0 mg/l in EucReg Medium + 5 mg/l zeatin
[10] = Table 7, 1.0 mg/l in EucReg Medium + 5 mg/l zeatin, 25 explants
[11] = 0.25 mg/l 2,4-D + 5.0 mg/l zeatin, with or without 250 μM AS
[12] = Table 7, 2.0 mg/l in EucReg Medium + 5 mg/l zeatin
[13] = Table 7, 2.0 mg/l in EucReg Medium + 5 mg/l zeatin, 25 explants
[14] = Table 7, 3.0 mg/l in EucReg Medium + 5 mg/l zeatin
[15] = 2 mg/l IAA + 5.0 mg/l zeatin, with or without 250 μM AS
[16] = Table 6, 0.1 mg/l NAA + 5.0 mg/l zeatin (Control Regeneration Medium)
[17] = Table 7, 0.1 mg/l in EucReg Medium + 5 mg/l zeatin
[18] = Table 7, 0.1 mg/l in EucReg Medium + 5 mg/l zeatin, 25 explants
[19] = 0.1 mg/l NAA + 5.0 mg/l zeatin (Control Regeneration Medium)

O=C(O)COc1ccc(Cl)cc1Cl [2,4-D, 2,4-Dichlorophenoxy acetic acid]
% GUS+ [1, 5]: 17% | Avg. No. Foci/Responding Explant [1, 5]: 1.5 | No. GUS Foci [1, 5]: 7 | No. GUS+ ([1]; Table 6, 0.25 mg/l 2,4-D + 0.5 mg/l zeatin, 24 explants): 4 | % GUS+ [1, 6]: 60% | Avg. No. Foci/Responding Explant [1, 6]: 10.3 | No. GUS Foci [1, 6]: 155 | No. GUS+ ([1]; Table 6, 1.0 mg/l 2,4-D + 0.5 mg/l zeatin, 25 explants): 15 | % GUS+ [1, 7]: 80% | Avg. No. Foci/Responding Explant [1, 7]: 4.9 | No. GUS Foci [1, 7]: 97 | No. GUS+ [1, 8]: 20 | % GUS+ [1, 9]: 48% | Avg. No. Foci/Responding Explant [1, 9]: 5.3 | No. GUS Foci [1, 9]: 64 | No. GUS+ [1, 10]: 12 | shoot regeneration [2]: delay of shoot regeneration | % GUS+ (E. urophylla; [11]): 72% | Avg. No. Foci/Responding Explant (E. urophylla; [11]): 10.8 | No. GUS Foci (E. urophylla; [11]): 388 | No. GUS+ (E. urophylla; 0.25 mg/l 2,4-D + 5.0 mg/l zeatin, with or without 250 μM AS, 50 explants): 36

COc1cc(C(C)=O)cc(OC)c1O [AS, acetosyringone]
infection ([3]; AS alone in the pre-culture medium): stimulates infection | infection of the wounded cells along the cut edges ([3]; GUS staining): increases the infection of the wounded cells along the cut edges

CN[C@@H]1[C@@H](O)[C@@H](O[C@@H]2[C@@H](O)[C@H](O[C@H]3O[C@H]([C@@H](C)O)[C@@H](O)[C@H](O)[C@H]3N)[C@@H](N)C[C@H]2N)OC[C@]1(C)O [Geneticin]
No. GUS+ Calli ([4]; Geneticin 20 mg/l, Regular shaded light, 5 calli stained): 0 | No. GUS+ Calli ([4]; Geneticin 30 mg/l, Dark, 6 calli stained): 4 | No. GUS+ Calli ([4]; Geneticin 30 mg/l, Regular shaded light, 17 calli stained): 13

O=C(O)Cc1c[nH]c2ccccc12 [IAA, indole-3-acetic acid]
% GUS+ [1, 9]: 64% | Avg. No. Foci/Responding Explant [1, 9]: 7.3 | No. GUS Foci [1, 9]: 116 | No. GUS+ [1, 10]: 16 | % GUS+ [1, 12]: 64% | Avg. No. Foci/Responding Explant [1, 12]: 10.4 | No. GUS Foci [1, 12]: 167 | No. GUS+ [1, 13]: 16 | % GUS+ [1, 14]: 96% | Avg. No. Foci/Responding Explant [1, 14]: 12.3 | No. GUS Foci [1, 14]: 565 | No. GUS+ ([1]; Table 7, 3.0 mg/l in EucReg Medium + 5 mg/l zeatin, 48 explants): 46 | % GUS+ (E. urophylla; [15]): 73% | Avg. No. Foci/Responding Explant (E. urophylla; [15]): 8.0 | No. GUS Foci (E. urophylla; [15]): 289 | No. GUS+ (E. urophylla; 2 mg/l IAA + 5.0 mg/l zeatin, with or without 250 μM AS, 49 explants): 36

O=C(O)Cc1cccc2ccccc12 [NAA, naphthaleneacetic acid]
% GUS+ [1, 16]: 12% | Avg. No. Foci/Responding Explant [1, 16]: 2.3 | No. GUS Foci [1, 16]: 6 | No. GUS+ ([1]; Table 6, 0.1 mg/l NAA + 5.0 mg/l zeatin (Control Regeneration Medium), 25 explants): 3 | % GUS+ [1, 17]: 16% | Avg. No. Foci/Responding Explant [1, 17]: 1.3 | No. GUS Foci [1, 17]: 5 | No. GUS+ [1, 18]: 4 | % GUS+ [1, 9]: 52% | Avg. No. Foci/Responding Explant [1, 9]: 2.7 | No. GUS Foci [1, 9]: 35 | No. GUS+ [1, 10]: 13 | % GUS+ [1, 12]: 36% | Avg. No. Foci/Responding Explant [1, 12]: 3.3 | No. GUS Foci [1, 12]: 30 | No. GUS+ [1, 13]: 9 | % GUS+ (E. urophylla; [19]): 22% | Avg. No. Foci/Responding Explant (E. urophylla; [19]): 3.4 | No. GUS Foci (E. urophylla; [19]): 37 | No. GUS+ (E. urophylla; 0.1 mg/l NAA + 5.0 mg/l zeatin (Control Regeneration Medium), 50 explants): 11

O=C(Nc1ccccc1)Nc1cnns1 [TDZ, thiadiazuron]
% GUS+ [1, 17]: 12% | Avg. No. Foci/Responding Explant [1, 17]: 8.3 | No. GUS Foci [1, 17]: 25 | No. GUS+ [1, 18]: 3 | % GUS+ [1, 7]: 4% | Avg. No. Foci/Responding Explant [1, 7]: 3.0 | No. GUS Foci [1, 7]: 3 | No. GUS+ [1, 8]: 1 | % GUS+ [1, 9]: 0% | Avg. No. Foci/Responding Explant [1, 9]: 0.0 | No. GUS Foci [1, 9]: 0 | No. GUS+ [1, 10]: 0
